Here are results for one molecule from EP0531119B1, “N,N',N'-trisubstituted -5-bis-aminomethylene-1,3-dioxane-4,6-dione inhibitors of acyl-CoA: cholesterol-acyl transferase” (AMERICAN HOME PRODUCTS CORPORATION, priority 1991, dated 1993).

The structures appear in SMILES notation.

In assay [1] the test system is plasma cholesterol. Put plainly: Cholesterol-cholic acid fed rat, decrease of plasma cholesterol. It counts as in vivo. Conditions: 10 mg/kg, oral gavage just prior to and just following feeding, four days. The protocol:
In addition, the product of Example 1 was studied in vivo in the cholesterol-cholic acid fed rat to determine the percent decrease of cholesterol in their plasma This study involves rats which are, prior to testing, trained for one week to eat over a four hour time period each day. Upon initiation of the experiment, the rats diet is supplemented with 1.0 percent cholesterol and 0.25 percent cholic acid. The rats are dosed with the test compound by oral gavage just prior to and just following the four hour feeding period. This is repeated for four days. On the fifth day, the rats are sacrificed and the total plasma cholesterol content is determined. The percent decrease in elevated plasma cholesterol levels is calculated in comparison with […] controls.

Assay [2] relates to ¹⁴C-Cholesterol Absorption. Put plainly: In vivo 14C-cholesterol absorption in normal rats. Conditions: oral gavage, dose 10 mg/kg, blood samples six hours later. The protocol:
Representative compounds were further tested in vivo to establish the percent inhibition of cholesterol absorption. In this study, normal rats were dosed (oral gavage) with ¹⁴C-cholesterol plus the test compound. Blood samples taken exactly six hours later were analyzed and the percent inhibition of cholesterol absorption was calculated as shown in: Table II

Assay [3] concerns acyl-coenzyme A: cholesterol acyltransferase. In words: Inhibition of intracellular cholesterol esterification (ACAT), test procedure of Ross et al. Type of assay: cell-based. From the text: The ability of the compounds of this invention to inhibit acyl-coenzyme A: cholesterol acyltransferase was established by initially showing that they inhibited intracellular cholesterol esterification by subjecting them to the standard experimental test procedure of Ross et al., J. Biol. Chem. 259 815 (1984). The results of these studies are presented in: Table I

`CCCCCCN(Cc1ccnc2ccccc12)C(Nc1cc(C(C)(C)C)c(O)c(C(C)(C)C)c1)=C1C(=O)OC(C)(C)OC1=O` [Example 1, 5-[[[3,5-Bis(1,1-dimethylethyl)-4-hydroxyphenyl]amino][hexyl(4-quinolinylmethyl)amino]methylene]-2,2-dimethyl-1,3-dioxane-4,6-dione]: the “decrease in plasma cholesterol” value in assay [1] is listed as 50%. The “% Inhibition of Absorption” value in assay [2] is on record as 72%. The “% Inhib, (Concentration - µM)” value in assay [3] (25 µM) is 69 (25) %. Besides, the IC50 in assay [3] (read-out: IC₅₀) is 2960 nM.
